Reference: ChEMBL document CHEMBL1153804, “Optimization of a series of quinazolinone-derived antagonists of CXCR3” (Bioorg Med Chem Lett, 2009)

Test system: Blood
Test: Drug level in bleomycin-induced mouse blood at 3 mg/mL, sc
Type: ADME, tissue-based

Row | Structure (SMILES) | Drug uptake [ng/mL]
1 | CCOc1ccc(-n2c([C@@H](C)N(Cc3ccc[n+]([O-])c3)C(=O)Cc3ccc(OC(F)(F)F)cc3)nc3ncccc3c2=O)cc1 | 19
2 | CCOc1ccc(-n2c([C@@H](C)N(Cc3cccnc3)C(=O)Cc3ccc(OC(F)(F)F)cc3)nc3ncccc3c2=O)cc1 | 26

Biological target: T1, C-X-C chemokine receptor type 3 (Homo sapiens, UniProt P49682)
T1 sequence (P49682 whole entry): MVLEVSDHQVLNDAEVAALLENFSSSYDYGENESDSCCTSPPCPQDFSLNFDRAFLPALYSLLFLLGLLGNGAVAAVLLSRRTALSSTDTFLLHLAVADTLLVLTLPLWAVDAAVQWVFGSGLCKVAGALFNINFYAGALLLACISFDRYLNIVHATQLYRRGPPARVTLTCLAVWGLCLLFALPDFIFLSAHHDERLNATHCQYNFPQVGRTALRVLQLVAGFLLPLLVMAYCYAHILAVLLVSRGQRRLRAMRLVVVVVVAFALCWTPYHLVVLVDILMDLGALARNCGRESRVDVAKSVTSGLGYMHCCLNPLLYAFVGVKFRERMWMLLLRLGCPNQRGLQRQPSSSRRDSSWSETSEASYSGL
Test: Displacement of [125I]-1P10 from human CXCR3 expressed in PBMC after 2 hrs in RPMI buffer by scintillation counting

Row | Structure (SMILES) | IC50 [nM]
3 | CCOc1ccc(-n2c([C@@H](C)N(Cc3cccnc3)C(=O)Cc3cc(C(F)(F)F)cc(C(F)(F)F)c3)nc3ccccc3c2=O)cc1 | 7
4 | CCOc1ccc(-n2c([C@@H](C)N(Cc3ccc[n+]([O-])c3)C(=O)Cc3ccc(OC(F)(F)F)cc3)nc3ncccc3c2=O)cc1 | 4
5 | CCOc1ccc(-n2c([C@@H](C)N(Cc3cccnc3)C(=O)Cc3ccc(C#N)cc3)nc3ccccc3c2=O)cc1 | 21
6 | CCOc1ccc(-n2c([C@@H](C)N(Cc3cccnc3)C(=O)Cc3ccc(F)c(C(F)(F)F)c3)nc3cnccc3c2=O)cc1 | 32
7 | CCOc1ccc(-n2c([C@@H](C)N(Cc3cc(C)no3)C(=O)Cc3ccc(F)c(C(F)(F)F)c3)nc3ncccc3c2=O)cc1 | 2
8 | CCOc1ccc(-n2c([C@@H](C)N(Cc3cccnc3)C(=O)Cc3ccc(S(C)(=O)=O)cc3)nc3ccccc3c2=O)cc1 | 770
9 | CCOc1ccc(-n2c([C@@H](C)N(C(=O)Cc3ccc(F)c(C(F)(F)F)c3)C3CCN(C(C)=O)CC3)nc3ncccc3c2=O)cc1 | 6
10 | CCOc1ccc(-n2c([C@@H](C)N(C[C@H]3CCCN3)C(=O)Cc3ccc(F)c(C(F)(F)F)c3)nc3ncccc3c2=O)cc1 | 2
11 | CCOc1ccc(-n2c([C@@H](C)N(Cc3cccnc3)C(=O)Cc3ccc(F)c(F)c3)nc3ccccc3c2=O)cc1 | 40
12 | CCOc1ccc(-n2c([C@@H](C)N(Cc3cccnc3)C(=O)Cc3cc(F)c(F)c(F)c3)nc3ccccc3c2=O)cc1 | 8
13 | CCOc1ccc(-n2c([C@@H](C)N(C[C@H]3CCCN3C(C)C)C(=O)Cc3ccc(F)c(C(F)(F)F)c3)nc3ncccc3c2=O)cc1 | 2
14 | CCOc1ccc(-n2c([C@@H](C)N(Cc3cccnc3)C(=O)CCc3ccc(C(F)(F)F)cc3)nc3ccccc3c2=O)cc1 | 2090
15 | CCOc1ccc(-n2c([C@@H](C)N(Cc3cccnc3)C(=O)Cc3cccc(C(F)(F)F)c3)nc3ccccc3c2=O)cc1 | 11
16 | CCOc1ccc(-n2c([C@@H](C)N(C[C@@H]3CCCN3C(C)C)C(=O)Cc3ccc(F)c(C(F)(F)F)c3)nc3ncccc3c2=O)cc1 | 5
17 | CCOc1ccc(-n2c([C@@H](C)N(Cc3cccnc3)C(=O)Cc3ccc(F)c(C(F)(F)F)c3)nc3nccnc3c2=O)cc1 | 42
18 | CCOc1ccc(-n2c([C@@H](C)N(C(=O)Cc3ccc(F)c(C(F)(F)F)c3)C3CCOCC3)nc3ncccc3c2=O)cc1 | 5
19 | CCOc1ccc(-n2c([C@@H](C)N(Cc3cccnc3)C(=O)Cc3nc4ccc(C(F)(F)F)cc4[nH]3)nc3ccccc3c2=O)cc1 | 210
20 | CCOc1ccc(-n2c([C@@H](C)N(Cc3cccnc3)C(=O)Cn3cnc(C(F)(F)F)c3)nc3ccccc3c2=O)cc1 | 7
21 | CCOc1ccc(-n2c([C@@H](C)N(Cc3cccnc3)C(=O)Cc3ccc(F)c(C(F)(F)F)c3)nc3cccnc3c2=O)cc1 | 110
22 | CCOc1ccc(-n2c([C@@H](C)N(CC3CCN(C)CC3)C(=O)Cc3ccc(F)c(C(F)(F)F)c3)nc3ncccc3c2=O)cc1 | 2
23 | CCOc1ccc(-n2c([C@@H](C)N(C(=O)Cc3ccc(F)c(C(F)(F)F)c3)C3CCN(C(C)C)CC3)nc3ncccc3c2=O)cc1 | 1
24 | CCOc1ccc(-n2c([C@@H](C)N(Cc3cccnc3)C(=O)Cc3ccc(F)c(C(F)(F)F)c3)nc3ncccc3c2=O)cc1 | 5
25 | CCOc1ccc(-n2c([C@@H](C)N(Cc3cccnc3)C(=O)CN3CCN(CCC(F)(F)F)CC3)nc3ccccc3c2=O)cc1 | 690

Test system: Blood
Test: Drug level in bleomycin-induced mouse blood at 1 mg/mL, sc
Type: ADME, tissue-based

Row | Structure (SMILES) | Drug uptake [ng/mL]
26 | CCOc1ccc(-n2c([C@@H](C)N(Cc3ccc[n+]([O-])c3)C(=O)Cc3ccc(OC(F)(F)F)cc3)nc3ncccc3c2=O)cc1 | 14
27 | CCOc1ccc(-n2c([C@@H](C)N(Cc3cccnc3)C(=O)Cc3ccc(OC(F)(F)F)cc3)nc3ncccc3c2=O)cc1 | 19

Test system: Blood
Test: Drug level in bleomycin-induced mouse blood at 10 mg/mL, sc
Type: ADME, tissue-based

Row | Structure (SMILES) | Drug uptake [ng/mL]
28 | CCOc1ccc(-n2c([C@@H](C)N(Cc3cccnc3)C(=O)Cc3ccc(OC(F)(F)F)cc3)nc3ncccc3c2=O)cc1 | 104
